Measurements from patent publication US20090227669A1, “Compositions and Methods for Perioperative Bladder Instillation” (THE UNIVERSITY OF TOLEDO, priority 2004, published 2009).

What was measured:
AY-27 cells [1] = test: Intravesical EGCG instillation after AY-27 tumor cell implantation in cauterized rat bladder; format: in vivo, Fisher 344 rats
Method: Single Polyphenol (EGCG): Fisher 344 rats were maintained under guidelines of the Medical College of Ohio Institutional Animal Care and Use Committee. A combination ketamine (80 mg/kg)/xylazine (12 mg/kg) intraperitoneal injection was used to anesthetize the rats prior to surgery. The abdomen was shaved and prepped with an iodine solution under sterile conditions. Oxytetracycline 20 mg was injected subcutaneously for antibacterial prophylaxis. Under 4× microscopic magnification, a 1.5 cm midline incision exposed the bladder. A sterile, 22 gauge Angiocath cannula was then advanced transurethrally. A blunt-tipped 24 gauge copper wire was then advanced through the catheter and a […] current was used to cauterize the bladder wall creating a small, white puckered area. The skin and muscular layers of the abdominal wall were closed with a running 4-0 silk suture.
AY-27 cells suspended in 0.25 cc of serum free RPMI-1640 medium were instilled transurethrally into 40 rats. The catheters were then capped and the tumor cells were allowed to dwell inside the bladder for 30 minutes. After tumor cell instillation, twelve rats (Group I) had two, separately hourly instillations of culture medium. Twenty-eight rats (Group II) were treated with a freshly prepared solution of 0.25 cc, 200 microM EGCG solution in RPLMI-1640 medium for 2 separate dwell times of one hour. […]

AY-27 cells [2] = test: DNA ladder assay in AY-27 cells; format: cell-based, rat
[3] = orally administered; along with at least five metabolites; cited from earlier work
[4] = system: AY-27 rat transitional cancer cell line; test: AY-27 cell survival/growth under EGCG treatment; format: cell-based

O=C(O[C@@H]1Cc2c(O)cc(O)cc2O[C@@H]1c1cc(O)c(O)c(O)c1)c1cc(O)c(O)c(O)c1 [EGCG, epigallocatechin-gallate]
tumor growth rate (AY-27 cells [1]; 200 microM EGCG, 0.25 cc, 2 separate dwell times of one hour, euthanized three weeks later, n=28, controls 100%): 36%
incidence of bladder tumor implantation (AY-27 cells [1]; intravesical EGCG at 200 microM for 2 hours): significantly reduce
banding pattern on DNA ladder assay (apoptosis) (AY-27 cells [2]): weak banding pattern
fraction of total administered EGCG found in urine [3]: 0.03-0.59%
cellular growth of AY-27 cell line [4]: inhibits cellular growth
cellular survival ([4]; after two hours of treatment at all concentrations of EGCG): No cellular survival
